According to patent US20230310428A1, “EGFR INHIBITOR AND PREPARATION METHOD AND USE THEREOF” (HONGYUN BIOTECH CO., LTD., priority 2020, published 2023):
Like-named read-outs stand apart in the source and are kept apart here.

Experiments:
Experiment in all cases: Growth inhibitory activity of compounds on BaF3 cell lines stably transfected with kinase (MTS, 48 h)
Format in all cases: cell-based
[1] = biological target: T1, various mutants of kinase EGFR (BaF3 cell lines stably transfected with kinase) (Homo sapiens, UniProt P00533)
T1 construct: other: BaF3 cells stably transfected with EGFR Δ19Del; MTS, 48 h; other: BaF3 cell line stably transfected with EGFR Δ19Del
In short: (§1)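 OD at 490 nm after 1-4 h MTS/PES incubation gave growth inhibition relative to 0.1% DMSO negative and cell-free medium blank. Compounds: 8-point 1/3 dilution from 10 µM, 48 h, 37 °C. IC50 from inhibition curves; duplicates.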

[2] = biological target: T2, various mutants of kinase EGFR (BaF3 cell lines stably transfected with kinase) (Homo sapiens, UniProt P00533, C797S/L858R/T790M)
T2 construct: expressed in transfected cells; host or cells: BaF3
In short: as §1

[3] = biological target: T3, various mutants of kinase EGFR (BaF3 cell lines stably transfected with kinase) (Homo sapiens, UniProt P00533, L858R)
T3 construct: expressed in transfected cells; host or cells: BaF3
In short: as §1

[4] = biological target: T4, various mutants of kinase EGFR (BaF3 cell lines stably transfected with kinase) (Homo sapiens, UniProt P00533, L858R/T790M)
T4 construct: expressed in transfected cells; host or cells: BaF3
In short: as §1

[5] = biological target: T5, various mutants of kinase EGFR (BaF3 cell lines stably transfected with kinase) (Homo sapiens, UniProt P00533, T790M/C797S, form not given)
T5 construct: other: BaF3 cells stably transfected with EGFR Δ19Del/T790M/C797S; MTS, 48; other: BaF3 cell line stably transfected with EGFR Δ19Del/T790M/C7
In short: as §1

[6] = biological target: T6, various mutants of kinase EGFR (BaF3 cell lines stably transfected with kinase) (Homo sapiens, UniProt P00533, T790M, form not given)
T6 construct: other: BaF3 cells stably transfected with EGFR Δ19Del/T790M; MTS, 48 h; other: BaF3 cell line stably transfected with EGFR Δ19Del/T790M; MTS, 48
In short: as §1

[7] = BaF3 cells stably transfected with EGFR Δ19Del, read-out: IC50, growth inhibition, Δ19Del
[8] = BaF3 cells stably transfected with EGFR L858R/T790M/C797S, read-out: IC50, growth inhibition, L858R/T790M/C797S
[9] = BaF3 cells stably transfected with EGFR L858R, read-out: IC50, growth inhibition, L858R
[10] = BaF3 cells stably transfected with EGFR L858R/T790M, read-out: IC50, growth inhibition, L858R/T790M
[11] = BaF3 cells stably transfected with EGFR Δ19Del/T790M/C797S, read-out: IC50, growth inhibition, Δ19Del/T790M/C797S
[12] = BaF3 cells stably transfected with EGFR Δ19Del/T790M, read-out: IC50, growth inhibition, Δ19Del/T790M
[13] = BaF3 cell line stably transfected with EGFR Δ19Del, read-out: Δ19Del growth inhibitory activity IC50
[14] = BaF3 cell line stably transfected with EGFR L858R/T790M/C797S, read-out: L858R/T790M/ C797S growth inhibitory activity IC50
[15] = BaF3 cell line stably transfected with EGFR L858R, read-out: L858R growth inhibitory activity IC50
[16] = BaF3 cell line stably transfected with EGFR L858R/T790M, read-out: L858R/ T790M growth inhibitory activity IC50
[17] = BaF3 cell line stably transfected with EGFR Δ19Del/T790M/C797S, read-out: Δ19Del/T790M/ C797S growth inhibitory activity IC50
[18] = BaF3 cell line stably transfected with EGFR Δ19Del/T790M, read-out: Δ19Del/ T790M growth inhibitory activity IC50

T6 sequence (P00533 with tags, fused parts or gaps DEL746-750/T790M, form open): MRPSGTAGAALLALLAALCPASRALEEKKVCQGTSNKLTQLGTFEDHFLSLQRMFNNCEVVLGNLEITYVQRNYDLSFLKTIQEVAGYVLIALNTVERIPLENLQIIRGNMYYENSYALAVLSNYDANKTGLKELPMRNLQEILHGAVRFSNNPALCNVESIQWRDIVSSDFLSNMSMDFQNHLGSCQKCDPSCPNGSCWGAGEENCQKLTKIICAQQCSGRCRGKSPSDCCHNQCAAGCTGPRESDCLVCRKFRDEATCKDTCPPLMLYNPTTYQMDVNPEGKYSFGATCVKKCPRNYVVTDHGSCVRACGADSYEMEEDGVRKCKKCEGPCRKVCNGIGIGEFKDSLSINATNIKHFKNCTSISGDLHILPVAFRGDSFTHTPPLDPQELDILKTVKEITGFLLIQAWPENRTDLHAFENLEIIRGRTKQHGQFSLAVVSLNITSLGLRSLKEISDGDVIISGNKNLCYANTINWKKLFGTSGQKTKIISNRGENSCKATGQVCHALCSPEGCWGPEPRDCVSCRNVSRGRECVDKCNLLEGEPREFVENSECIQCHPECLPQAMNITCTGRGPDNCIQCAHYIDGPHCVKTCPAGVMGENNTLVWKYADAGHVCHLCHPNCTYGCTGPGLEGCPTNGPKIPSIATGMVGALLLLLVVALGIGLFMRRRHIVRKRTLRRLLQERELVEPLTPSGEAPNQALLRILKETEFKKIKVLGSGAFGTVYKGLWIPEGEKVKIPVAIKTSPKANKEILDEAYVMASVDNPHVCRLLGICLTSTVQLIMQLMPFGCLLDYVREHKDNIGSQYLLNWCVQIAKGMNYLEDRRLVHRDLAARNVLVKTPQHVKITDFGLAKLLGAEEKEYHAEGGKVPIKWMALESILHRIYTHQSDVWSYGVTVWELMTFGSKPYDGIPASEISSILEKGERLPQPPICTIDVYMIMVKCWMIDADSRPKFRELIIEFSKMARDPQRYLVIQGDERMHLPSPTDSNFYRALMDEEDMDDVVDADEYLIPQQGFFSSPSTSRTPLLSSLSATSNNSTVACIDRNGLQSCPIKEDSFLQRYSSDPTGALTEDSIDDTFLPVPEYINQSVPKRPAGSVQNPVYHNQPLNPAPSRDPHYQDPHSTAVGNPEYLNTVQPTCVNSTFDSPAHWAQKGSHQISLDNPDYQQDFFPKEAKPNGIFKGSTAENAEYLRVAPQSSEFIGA
T1 sequence (P00533 with tags, fused parts or gaps DEL746-750): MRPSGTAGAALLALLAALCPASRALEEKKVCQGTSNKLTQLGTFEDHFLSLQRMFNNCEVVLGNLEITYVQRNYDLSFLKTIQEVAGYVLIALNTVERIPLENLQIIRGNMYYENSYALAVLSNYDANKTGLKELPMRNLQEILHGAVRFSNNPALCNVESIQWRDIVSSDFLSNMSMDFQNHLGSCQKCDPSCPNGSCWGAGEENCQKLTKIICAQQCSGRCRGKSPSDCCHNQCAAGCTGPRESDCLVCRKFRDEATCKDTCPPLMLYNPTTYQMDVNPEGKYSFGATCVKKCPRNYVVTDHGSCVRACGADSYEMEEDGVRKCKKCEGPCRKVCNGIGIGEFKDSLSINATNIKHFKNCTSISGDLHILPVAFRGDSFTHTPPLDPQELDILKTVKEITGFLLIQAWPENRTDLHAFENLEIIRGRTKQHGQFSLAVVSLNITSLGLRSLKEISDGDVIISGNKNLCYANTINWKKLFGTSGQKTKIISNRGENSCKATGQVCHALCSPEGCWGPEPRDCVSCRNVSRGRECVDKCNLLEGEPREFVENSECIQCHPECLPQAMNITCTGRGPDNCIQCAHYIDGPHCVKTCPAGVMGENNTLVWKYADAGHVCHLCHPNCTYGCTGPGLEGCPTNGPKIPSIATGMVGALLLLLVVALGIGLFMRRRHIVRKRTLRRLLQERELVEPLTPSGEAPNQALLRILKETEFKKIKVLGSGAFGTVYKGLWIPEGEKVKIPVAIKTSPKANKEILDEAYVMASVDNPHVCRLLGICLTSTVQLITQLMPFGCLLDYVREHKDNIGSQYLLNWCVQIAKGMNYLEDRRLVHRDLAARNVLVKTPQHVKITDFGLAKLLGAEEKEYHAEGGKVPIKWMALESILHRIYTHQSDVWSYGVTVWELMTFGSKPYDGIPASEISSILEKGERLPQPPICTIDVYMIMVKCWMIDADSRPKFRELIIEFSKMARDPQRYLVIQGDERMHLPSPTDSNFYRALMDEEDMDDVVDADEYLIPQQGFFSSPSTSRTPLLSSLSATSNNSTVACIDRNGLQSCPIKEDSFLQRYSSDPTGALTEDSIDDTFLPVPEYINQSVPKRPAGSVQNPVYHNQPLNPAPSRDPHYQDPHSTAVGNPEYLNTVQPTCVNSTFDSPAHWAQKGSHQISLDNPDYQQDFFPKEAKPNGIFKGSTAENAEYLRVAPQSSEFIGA
T2 sequence (P00533 25-1210 T790M/C797S/L858R): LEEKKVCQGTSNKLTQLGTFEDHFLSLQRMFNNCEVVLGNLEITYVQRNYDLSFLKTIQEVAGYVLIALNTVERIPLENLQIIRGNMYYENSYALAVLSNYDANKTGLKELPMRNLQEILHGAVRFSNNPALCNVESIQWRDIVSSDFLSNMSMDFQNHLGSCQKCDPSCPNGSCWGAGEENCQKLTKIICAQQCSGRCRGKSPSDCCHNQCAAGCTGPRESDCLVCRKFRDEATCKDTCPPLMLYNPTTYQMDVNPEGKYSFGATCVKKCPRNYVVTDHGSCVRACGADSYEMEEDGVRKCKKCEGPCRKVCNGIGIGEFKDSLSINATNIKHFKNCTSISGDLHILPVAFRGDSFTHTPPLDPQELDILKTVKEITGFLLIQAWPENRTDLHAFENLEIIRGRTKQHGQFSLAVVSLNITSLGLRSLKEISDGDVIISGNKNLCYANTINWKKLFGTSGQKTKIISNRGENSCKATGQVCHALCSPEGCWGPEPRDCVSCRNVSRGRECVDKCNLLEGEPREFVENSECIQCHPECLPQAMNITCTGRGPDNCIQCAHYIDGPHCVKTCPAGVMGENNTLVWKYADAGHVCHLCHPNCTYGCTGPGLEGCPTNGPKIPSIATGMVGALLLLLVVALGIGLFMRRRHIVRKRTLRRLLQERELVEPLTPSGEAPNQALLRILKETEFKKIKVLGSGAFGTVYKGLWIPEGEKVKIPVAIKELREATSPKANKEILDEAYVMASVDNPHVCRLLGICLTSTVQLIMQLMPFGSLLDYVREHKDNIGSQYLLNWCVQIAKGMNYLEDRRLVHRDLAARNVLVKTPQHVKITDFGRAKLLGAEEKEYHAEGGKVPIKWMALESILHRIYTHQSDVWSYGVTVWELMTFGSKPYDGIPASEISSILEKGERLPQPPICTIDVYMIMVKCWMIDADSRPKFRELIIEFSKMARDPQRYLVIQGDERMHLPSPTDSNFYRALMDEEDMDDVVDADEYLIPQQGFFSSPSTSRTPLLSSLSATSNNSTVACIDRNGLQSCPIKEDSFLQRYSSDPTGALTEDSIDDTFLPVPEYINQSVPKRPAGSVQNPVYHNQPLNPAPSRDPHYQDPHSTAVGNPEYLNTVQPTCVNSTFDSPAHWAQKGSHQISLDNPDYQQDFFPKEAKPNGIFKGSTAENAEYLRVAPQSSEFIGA
T5 sequence (P00533 with tags, fused parts or gaps DEL746-750/T790M/C797S, form open): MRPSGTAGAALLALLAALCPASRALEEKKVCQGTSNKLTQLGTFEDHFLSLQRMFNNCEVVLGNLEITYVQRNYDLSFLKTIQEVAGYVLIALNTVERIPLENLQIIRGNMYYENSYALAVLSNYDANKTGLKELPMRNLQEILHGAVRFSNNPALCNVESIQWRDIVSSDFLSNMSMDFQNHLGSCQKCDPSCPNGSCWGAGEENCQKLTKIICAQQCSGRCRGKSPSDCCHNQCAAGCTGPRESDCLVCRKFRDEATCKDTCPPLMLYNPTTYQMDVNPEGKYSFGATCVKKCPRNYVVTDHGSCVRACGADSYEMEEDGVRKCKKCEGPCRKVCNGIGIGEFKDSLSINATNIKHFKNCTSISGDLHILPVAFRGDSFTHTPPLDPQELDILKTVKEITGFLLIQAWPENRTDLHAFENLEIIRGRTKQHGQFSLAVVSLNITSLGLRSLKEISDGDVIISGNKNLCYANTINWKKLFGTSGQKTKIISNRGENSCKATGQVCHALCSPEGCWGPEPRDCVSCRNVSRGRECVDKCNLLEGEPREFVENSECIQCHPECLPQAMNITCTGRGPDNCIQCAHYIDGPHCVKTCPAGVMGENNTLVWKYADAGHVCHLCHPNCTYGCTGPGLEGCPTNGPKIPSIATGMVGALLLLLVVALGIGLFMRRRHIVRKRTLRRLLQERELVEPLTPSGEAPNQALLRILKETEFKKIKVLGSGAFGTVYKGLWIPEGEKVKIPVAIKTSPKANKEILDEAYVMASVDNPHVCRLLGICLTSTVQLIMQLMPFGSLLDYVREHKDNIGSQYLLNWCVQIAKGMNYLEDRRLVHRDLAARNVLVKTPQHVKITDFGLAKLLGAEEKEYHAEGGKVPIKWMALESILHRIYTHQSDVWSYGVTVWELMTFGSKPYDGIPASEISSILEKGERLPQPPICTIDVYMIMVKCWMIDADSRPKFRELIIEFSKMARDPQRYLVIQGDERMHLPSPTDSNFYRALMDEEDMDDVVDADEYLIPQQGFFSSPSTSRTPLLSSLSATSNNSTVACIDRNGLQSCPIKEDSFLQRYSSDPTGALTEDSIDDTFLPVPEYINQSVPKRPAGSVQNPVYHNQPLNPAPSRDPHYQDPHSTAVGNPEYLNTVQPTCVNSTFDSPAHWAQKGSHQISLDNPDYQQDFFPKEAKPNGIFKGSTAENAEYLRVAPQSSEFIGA

IC50 [1, 7] [nM]	IC50 [2, 8] [nM]	IC50 [3, 9] [nM]	IC50 [4, 10] [nM]	IC50 [5, 11] [nM]	IC50 [6, 12] [nM]	IC50 [1, 13] [nM]	IC50 [2, 14] [nM]	IC50 [3, 15] [nM]	IC50 [4, 16] [nM]	IC50 [5, 17] [nM]	IC50 [6, 18] [nM]	Structure (SMILES)
≤ 50	≤ 50	≤ 50	≤ 50	≤ 50	≤ 50							COc1cc(N2CCC(N3CCN(C)CC3)CC2)c(C)cc1Nc1ncc(Br)c(Nc2ccc3nccnc3c2N(C)S(C)(=O)=O)n1 [Compound I-2]
50 to 500	≤ 50	50 to 500	≤ 50	≤ 50	≤ 50							COc1ccc(N2CCC(O)CC2)cc1Nc1ncc(Br)c(Nc2ccc3nccnc3c2N(C)S(C)(=O)=O)n1 [Compound I-77]
50 to 500	≤ 50	≤ 50	≤ 50	≤ 50	≤ 50							CCc1cc(Nc2ncc(Br)c(Nc3ccc4nccnc4c3N(C)S(=O)(=O)C(C)C)n2)c(OC)cc1N1CCC(N(C)C)CC1 [Compound I-137]
						50 to 500	50 to 500	500 to 2500	50 to 500	50 to 500	50 to 500	CCc1cc(Nc2nc(Nc3ccc4nccnc4c3N(C)S(C)(=O)=O)c3[nH]ccc3n2)c(OC(F)(F)F)cc1N1CCC(N2CCN(C)CC2)CC1 [II-1-22]
						500 to 2500	500 to 2500	500 to 2500	50 to 500	50 to 500	500 to 2500	COc1cc(N2CCC(N(C)C)C2)c(C)cc1Nc1nc(Nc2ccc3nccnc3c2N(C)S(C)(=O)=O)c2sccc2n1 (stereo not drawn) [II-1-14]
						500 to 2500	500 to 2500	500 to 2500	500 to 2500	50 to 500	500 to 2500	COc1cc(N2CCC(N3CCN(C)CC3)CC2)c(C)cc1Nc1nc(Nc2ccc3nccnc3c2N(C)S(C)(=O)=O)c2ccsc2n1 [II-2-1]
50 to 500	50 to 500	50 to 500	50 to 500	≤ 50	≤ 50							C=Cc1cc(Nc2ncc(Br)c(Nc3ccc4nccnc4c3N(C)S(=O)(=O)C3CC3)n2)c(OC(F)(F)F)cc1N1CCC(N2CCN(C)CC2)CC1 [Compound I-219]
						50 to 500	50 to 500	50 to 500	50 to 500	50 to 500	50 to 500	CCc1cc(Nc2ncc(CC)c(Nc3ccc4nccnc4c3N(C)S(C)(=O)=O)n2)c(OC)cc1C(=O)N1CCC(N2CCN(C)CC2)CC1 [Compound I-350]
≤ 50	≤ 50	≤ 50	≤ 50	≤ 50	≤ 50							CN1CCN(c2ccc(Nc3ncc(Br)c(Nc4ccc5nccnc5c4N(C)S(C)(=O)=O)n3)cc2)CC1 [Compound I-40]
						500 to 2500	500 to 2500	500 to 2500	500 to 2500	50 to 500	500 to 2500	COc1cc(N2CCC(N3CCN(C)CC3)CC2)ccc1Nc1nc(Nc2ccc3nccnc3c2N(C)S(C)(=O)=O)c2sccc2n1 [II-1-1]
						50 to 500	≤ 50	≤ 50	≤ 50	≤ 50	50 to 500	CCS(=O)(=O)N(C)c1c(Nc2nc(Nc3cc(N4CCC(O)CC4)ccc3OC)ncc2Cl)ccc2nccnc12 [Compound I-372]
						50 to 500	50 to 500	50 to 500	≤ 50	50 to 500	50 to 500	COc1ccc(N2CCC(C#N)CC2)cc1Nc1ncc(Br)c(Nc2ccc3nccnc3c2N(C)S(C)(=O)=O)n1 [Compound I-351]
≤ 50	≤ 50	≤ 50	≤ 50	≤ 50	≤ 50							CCc1cc(Nc2ncc(Cl)c(Nc3ccc4nccnc4c3N(C)S(=O)(=O)C3CC3)n2)c(OC)cc1N1CCC(N(C)C)CC1 [Compound I-122]
						50 to 500	≤ 50	≤ 50	≤ 50	≤ 50	≤ 50	COc1cc(N2CCN(C)CC2)c(C)cc1Nc1ncc(Br)c(Nc2ccc3nccnc3c2N(C2CC2)S(C)(=O)=O)n1 [Compound I-309]
50 to 500	50 to 500	50 to 500	50 to 500	≤ 50	50 to 500							COc1nc(N2CCC(N3CCN(C)CC3)CC2)ccc1Nc1ncc(C(F)(F)F)c(Nc2ccc3nccnc3c2N(C)S(C)(=O)=O)n1 [Compound I-197]
50 to 500	50 to 500	≤ 50	50 to 500	≤ 50	≤ 50							CCc1cc(Nc2ncc(F)c(Nc3ccc4nccnc4c3N(C)S(C)(=O)=O)n2)c(OC)cc1N1CCC(N(C)C)C1 (stereo not drawn) [Compound I-188]
≤ 50	≤ 50	≤ 50	≤ 50	≤ 50	≤ 50							CCc1cc(Nc2ncc(Cl)c(Nc3ccc4nccnc4c3N(C)S(C)(=O)=O)n2)c(OC)cc1N1CCN(C)CC1 [Compound I-172]
						≤ 50	≤ 50	≤ 50	≤ 50	≤ 50	≤ 50	CCc1cc(Nc2ncc(CC)c(Nc3ccc4nccnc4c3N(C)S(C)(=O)=O)n2)c(OC)cc1N1CCC(N(C)C)CC1 [Compound I-323]
						≤ 50	≤ 50	50 to 500	50 to 500	50 to 500	≤ 50	COc1ccc(N2CCC(O)CC2)cc1Nc1ncc(C(C)C)c(Nc2ccc3nccnc3c2N(C)S(C)(=O)=O)n1 [Compound I-364]
≤ 50	≤ 50	≤ 50	≤ 50	≤ 50	≤ 50							CCc1cc(Nc2ncc([N+](=O)[O-])c(Nc3ccc4nccnc4c3N(C)S(C)(=O)=O)n2)c(OC)cc1N1CCC(N(C)C)CC1 [Compound I-193]
						50 to 500	≤ 50	50 to 500	≤ 50	≤ 50	≤ 50	COc1cc(N2CCC(N(C)C)CC2)c(C)cc1Nc1ncc(Br)c(Nc2ccc3nccnc3c2N(C2CC2)S(C)(=O)=O)n1 [Compound I-311]
50 to 500	≤ 50	50 to 500	50 to 500	50 to 500	50 to 500							Cc1cc2c(cc1Nc1ncc(Br)c(Nc3ccc4nccnc4c3N(C)S(C)(=O)=O)n1)CN(C)CC2 [Compound I-92]
						50 to 500	≤ 50	50 to 500	50 to 500	≤ 50	50 to 500	COc1cc(N2CCC(N3CCN(C)CC3)CC2)ccc1Nc1ncc(Cl)c(Nc2ccc3nccnc3c2N(C2CC2)S(C)(=O)=O)n1 [Compound I-303]
						500 to 2500	500 to 2500	500 to 2500	500 to 2500	50 to 500	50 to 500	CCc1cc(Nc2nc(Nc3ccc4nccnc4c3N(C)S(C)(=O)=O)c3[nH]ccc3n2)c(OC)cc1N1CCN(C)CC1 [II-1-34]
50 to 500	≤ 50	50 to 500	50 to 500	≤ 50	≤ 50							C=Cc1cc(Nc2ncc(Br)c(Nc3ccc4nccnc4c3N(CC)S(C)(=O)=O)n2)c(OC(F)(F)F)cc1N1CCC(N2CCN(C)CC2)CC1 [Compound I-298]
500 to 2500	50 to 500	500 to 2500	50 to 500	≤ 50	50 to 500							CCc1cc(Nc2ncc(Cl)c(Nc3ccc4nccnc4c3N(C)S(=O)(=O)C(F)(F)F)n2)c(OC)cc1N1CCC(N(C)C)C1 (stereo not drawn) [Compound I-133]
500 to 2500	50 to 500	500 to 2500	50 to 500	50 to 500	50 to 500							COc1cc(N2CCC(N3CCN(C)CC3)CC2)ccc1Nc1ncc(Cl)c(Nc2ccc3nccnc3c2N(C)S(=O)(=O)C(F)(F)F)n1 [Compound I-261]
